Results reported in the NIST ThermoML archive (doi:10.1016/j.tca.2019.01.031).
Numbers after ± are expanded uncertainties.

Tests used:
[1] = 298 K; 101.33 kPa; Crystal; X-ray diffraction
[2] = molar heat capacity at constant pressure; conditions: 101.33 kPa, Crystal, DSC
[3] = xn = mol fraction of the nth substance listed; conditions: 298 K, 101.33 kPa, Crystal, X-ray diffraction
[4] = molar heat capacity at constant pressure; xn = mol fraction of the nth substance listed; conditions: 101.33 kPa, Crystal, DSC

O=P([O-])([O-])[O-].[La+3] [lanthanum orthophosphate]
Conditions | mass density [kg/m3]
[1] | 5063 ± 10

[2]
Conditions | molar heat capacity at constant pressure [J/K/mol]
298 K | 97.5 ± 11
300 K | 98 ± 8.7
350 K | 107.3 ± 11
400 K | 114.3 ± 11
450 K | 120 ± 11
500 K | 124.9 ± 9.1
550 K | 129.3 ± 11
600 K | 133.2 ± 9.3
650 K | 136.9 ± 11
700 K | 140.4 ± 11
750 K | 143.8 ± 9.5
800 K | 147.1 ± 11

O=P([O-])([O-])[O-].[La+3] [lanthanum orthophosphate] + O=P([O-])([O-])[O-].O=P([O-])([O-])[O-].[Sr+2].[Th+4]
Conditions | mass density [kg/m3]
[3], x1 = 1 | 5063 ± 10

[4], x1 = 1
Conditions | molar heat capacity at constant pressure [J/K/mol]
298 K | 97.5 ± 11
300 K | 98 ± 8.7
350 K | 107.3 ± 11
400 K | 114.3 ± 11
450 K | 120 ± 11
500 K | 124.9 ± 9.1
550 K | 129.3 ± 11
600 K | 133.2 ± 9.3
650 K | 136.9 ± 11
700 K | 140.4 ± 11
750 K | 143.8 ± 9.5
800 K | 147.1 ± 11

O=P([O-])([O-])[O-].O=P([O-])([O-])[O-].[Sr+2].[Th+4] [strontium thorium(IV) phosphate]
Conditions | mass density [kg/m3]
[1] | 5619 ± 10

[2]
Conditions | molar heat capacity at constant pressure [J/K/mol]
298 K | 177.6 ± 21
300 K | 178.6 ± 17
350 K | 197.2 ± 17
400 K | 210.2 ± 21
450 K | 220 ± 21
500 K | 227.8 ± 18
550 K | 234.2 ± 18
600 K | 239.6 ± 15
650 K | 244.4 ± 18
700 K | 248.8 ± 18
750 K | 252.8 ± 22
800 K | 256.6 ± 22

O=P([O-])([O-])[O-].O=P([O-])([O-])[O-].[Sr+2].[Th+4] [strontium thorium(IV) phosphate] + O=P([O-])([O-])[O-].[La+3]
[3]
Conditions | mass density [kg/m3]
x2 = 0 | 5619 ± 9
x2 = 0.333 | 5505 ± 12
x2 = 0.571 | 5395 ± 13
x2 = 0.75 | 5295 ± 15
x2 = 0.889 | 5203 ± 20

molar heat capacity at constant pressure [J/K/mol], [4]
Conditions | x2 = 0 | x2 = 0.333 | x2 = 0.571 | x2 = 0.75 | x2 = 0.889
298 K | 177.6 ± 21 | 172.2 ± 18 | 148.6 ± 18 | 130.3 ± 14 | 117 ± 12
300 K | 178.6 ± 17 | 172.9 ± 15 | 149.2 ± 13 | 130.6 ± 11 | 117.4 ± 10
350 K | 197.2 ± 18 | 186.9 ± 18 | 158.5 ± 18 | 139.5 ± 14 | 127.5 ± 10
400 K | 210.2 ± 21 | 197.9 ± 18 | 166.3 ± 16 | 146.8 ± 14 | 135.2 ± 8.5
450 K | 220 ± 22 | 207.2 ± 18 | 173.1 ± 16 | 153.1 ± 12 | 141.5 ± 12
500 K | 227.8 ± 18 | 215.5 ± 16 | 179.1 ± 13 | 158.8 ± 14 | 147.1 ± 13
550 K | 234.2 ± 18 | 223.2 ± 16 | 184.8 ± 16 | 164 ± 12 | 152.1 ± 15
600 K | 239.6 ± 15 | 230.4 ± 19 | 190.3 ± 19 | 169.1 ± 14 | 156.8 ± 11
650 K | 244.4 ± 18 | 237.2 ± 16 | 195.5 ± 16 | 173.9 ± 12 | 161.1 ± 11
700 K | 248.8 ± 18 | 243.9 ± 19 | 200.6 ± 14 | 178.6 ± 14 | 165.3 ± 13
750 K | 252.8 ± 22 | 250.2 ± 19 | 205.6 ± 14 | 183.3 ± 12 | 169.3 ± 11
800 K | 256.6 ± 22 | 256.6 ± 22 | 210.6 ± 16 | 187.8 ± 14 | 173.2 ± 13

[O-2].[O-2].[Zr+4] [zirconium oxide]
[2]
Conditions | molar heat capacity at constant pressure [J/K/mol]
313 K | 56.9 ± 6.3
323 K | 57.7 ± 4.5
333 K | 58.6 ± 6.3
343 K | 59.3 ± 4.5
353 K | 60 ± 2.9
363 K | 60.7 ± 4.5
373 K | 61.4 ± 4.6
383 K | 61.9 ± 3
393 K | 62.5 ± 4.6
403 K | 63 ± 4.6
413 K | 63.6 ± 4.6
423 K | 64 ± 3
433 K | 64.5 ± 3
443 K | 64.9 ± 3
453 K | 65.4 ± 4.6
463 K | 65.8 ± 4.6
473 K | 66.2 ± 4.6
483 K | 66.6 ± 4.6
493 K | 66.9 ± 3.1
503 K | 67.3 ± 4.7
513 K | 67.6 ± 4.7
523 K | 68 ± 4.7
533 K | 68.3 ± 4.7
543 K | 68.6 ± 3.1
553 K | 68.9 ± 3.2
563 K | 69.2 ± 4.7
573 K | 69.5 ± 4.7
583 K | 69.8 ± 3.2
593 K | 70.1 ± 4.7
603 K | 70.4 ± 4.7
613 K | 70.6 ± 4.7
623 K | 70.9 ± 3.2
633 K | 71.2 ± 4.7
643 K | 71.4 ± 4.7
653 K | 71.7 ± 4.7
663 K | 71.9 ± 3.2
673 K | 72.2 ± 3.2
683 K | 72.4 ± 3.2
693 K | 72.7 ± 4.8
703 K | 72.9 ± 4.8
713 K | 73.1 ± 4.8
723 K | 73.4 ± 4.8
733 K | 73.6 ± 4.8
743 K | 73.8 ± 6.5
753 K | 74.1 ± 6.5
763 K | 74.3 ± 4.8
773 K | 74.5 ± 6.6
783 K | 74.7 ± 4.8
793 K | 74.9 ± 6.6
800 K | 75.1 ± 4.8
